Results as given in patent publication EP0623675A1, “Altered affinity polypeptides of metal chelate binding antibodies” (HYBRITECH INCORPORATED, priority 1992, dated 1994).

Experiments:
[1] = test system: CHA255 Fab' variant clone 1.1.1 (heavy chain CDR H1/H3 mutagenesis, Fig. 3B); experiment: Scatchard analysis of phage expressed altered CHA255 Fab' with InEOTUBE; format: binding, murine; conditions: compared with native CHA255 Fab' (synthesized and phage expressed); crude periplasm Fab', about 10 nM; cold InEOTUBE 2.43 nM to 0.082 nM
Procedure: (§1) Free Fab' was expressed and isolated from the periplasmic space of the non-suppressor strain MK30-3 as previously described (International Patent Publication No. WO 92/06204). The concentration of antibody in periplasm preparations was estimated by comparing the ELISA signal generated by aliquots of periplasm of mutant clones to a standard curve using purified CHA255 Fab'. Data points for the Scatchard plots were prepared by incubating antibody (100 µl, approximately 10 nM) diluted in 1X PBS, 1% BSA as crude periplasm fraction with dilutions of cold InEOTUBE (2.43 nM to 0.082 nM) in 1X PBS, 1% BSA hapten spiked with ¹¹¹InEOTUBE as a tracer for […]. This assay is described in greater detail in Example 3, below. The sample was centrifuged at 6,000 rpm for 10 minutes in an Amicon Centrifree™ micro-concentrator (Amicon, Grace Co., Danvers, MA), 10,000 MW cutoff, to separate free hapten from hapten bound to Fab'. Total and free counts were determined and the slope of a plot of the ratio of bound hapten to free hapten versus the concentration of bound hapten was calculated for affinity constant (Ka).
(§2) The following were added to a 96 well microtiter plate, in triplicate: • a. 25µl EOTUBE-¹¹¹In-ground state in at 4.40pg/µl; • b. 25µl EOTUBE-ground state in at serial dilutions of the 0.40ng/µl and 0.36ng/µl made above. Eleven dilutions each plus a zero giving 24 points with a range of 10ng/well down to 4.40pg/well plus a zero. Dilute with RPMI containing 10% horse serum; • c. 25µl RPMI containing 10% horse serum; • d. 25µl antibody of interest. (concentration determined by sensitivity assay); and • e. 20µl sheep anti-mouse IgG coupled to sepharose beads (same as used in sensitivity curve assay).
(§3) The plate was incubated overnight on a rotator at room temperature. The contents of wells were aspirated onto glass-fiber filter paper, cut out and counted. Molar bound vs. bound/free were graphed. The linear regression of the part of the curve that is a straight line was determined. Ka was the negative of the slope.

[2] = test system: CHA255 Fab' variant clone 3.1.1 (heavy chain CDR H1/H3 mutagenesis, Fig. 3B); experiment: as above; format: binding, murine; conditions: compared with native CHA255 Fab' (synthesized and phage expressed); crude periplasm Fab', about 10 nM; cold InEOTUBE 2.43 nM to 0.082 nM
Procedure: as §1, §2, §3

[3] = test system: CHA255 Fab' variant clone 3.2.1 (heavy chain CDR H1/H3 mutagenesis, Fig. 3B); experiment: as above; format: binding, murine; conditions: compared with native phage expressed CHA255 Fab'; crude periplasm Fab', about 10 nM; cold InEOTUBE 2.43 nM to 0.082 nM
Procedure: as §1, §2, §3

[4] = test system: CHA255 Fab' variant clone 3.7.1 (heavy chain CDR H1/H3 mutagenesis, Fig. 3B); experiment: as above; format: binding, murine; conditions: compared with native CHA255 Fab' (synthesized and phage expressed); crude periplasm Fab', about 10 nM; cold InEOTUBE 2.43 nM to 0.082 nM
Procedure: as §1, §2, §3

[5] = test system: CHA255 Fab' variant clone 4.2.1 (heavy chain CDR H1/H3 mutagenesis, Fig. 3B); experiment: as above; format: binding, murine; conditions: compared with native CHA255 Fab' (synthesized and phage expressed); crude periplasm Fab', about 10 nM; cold InEOTUBE 2.43 nM to 0.082 nM
Procedure: as §1, §2, §3

[6] = test system: monoclonal antibody CHA255; experiment: Antibody CHA255 binding assay (Centrifree ultrafiltration of labeled chelate); design: species or system murine; conditions: radiolabeled chelate 5 nM, antibody 133 nM, PBS pH 7.4, 15 minutes at room temperature
Procedure: As indicated, the monoclonal antibody CHA255 is specific for the In(III)-benzyl EDTA complex. The affinity and characterization have been described previously by Reardon et al. in Nature 316:265 (1985). Binding assays were performed to verify the identity of the haptens designated as DB-I to DB-X and DDB-I to DDB-III. […] For the ⁹⁰Yttrium (III) hapten chelate, in particular, CHA255 binding required the presence of the Indiumbenzyl-EDTA moiety as provided in the compounds of the invention. The labeled DB and DDB hapten chelates were combined with antibody CHA255 in PBS (10 mM sodium phosphate, 150 mM sodium chloride, pH 7.4) containing 44 µg/mL of human serum albumin and 0.05% Triton-X-100 detergent. Concentrations of the radiolabeled hapten chelating agent and antibody were 5 nM and 133 nM, respectively. The mixture was vortexed and allowed to stand at room temperature for 15 minutes, after which it was transferred to an Amicon Centrifree™ device, with a NMW limit of 30,000, and centrifuged to separate antibody-bound chelate from free hapten chelate. The species bound to the antibody was retained by the membrane and the free chelate flowed through the membrane into the filtrate. The extent of antibody-hapten chelate binding was then determined.

Row | Substance | binding affinity (affinity constant Ka for InEOTUBE) [1] | binding affinity (affinity constant Ka for InEOTUBE) [2] | binding affinity (affinity constant Ka for InEOTUBE) [3] | binding affinity (affinity constant Ka for InEOTUBE) [4] | binding affinity (affinity constant Ka for InEOTUBE) [5] | antibody-hapten chelate binding [6]
1 | 4-[N'[2-hydroxyethyl]-thioureido]benzyl EDTA [InEOTUBE] | approximately equivalent | approximately equivalent | approximately one order of magnitude less than the native phage expressed Fab' | approximately equivalent | approximately equivalent | –
2 | diethylenetriaminepentaacetic acid [⁹⁰Yttrium (III) DTPA] | – | – | – | – | – | neither ⁹⁰Yttrium (III) or ¹¹¹Indium (III) DTPA, alone, bound
